According to US9919941B2, “Multiple uses of amine salts for industrial water treatment” (AMSA, Inc., priority 2012, dated 2018):
“And” between values parts separate entries of the source, which are not always exact repeats. Identical values can stand only once.

Key:
[1] = mild steel corrosion inhibition, ASTM G31-72 coupon weight loss
Protocol: (§1) Corrosion inhibition studies of various compounds of Formula (I) were conducted according to ASTM method G31-72 (2004). The following is the general test method.
(§2) Aqueous solutions of the test compound (900 mL) were prepared with city water for mild steel corrosion studies or a dilute sea salt solution (1000 ppm in deionized water) for copper corrosion studies. The solutions were magnetically stirred at a constant rate in a 1 L beaker and three coupons of either mild steel or copper were suspended in each beaker. After 5 days (steel) or 7 days (copper), the coupons were removed and cleaned according to ASTM method G1-03. Average weight loss was determined for each set of three coupons and then converted to corrosion rate in terms of mils per year (mpy).
These tests compare the corrosion inhibition of compounds of Formula (I), namely from Table 1, in the first set of comparisons, Compound A with Compound 13, and Compound B with Compound 1, and with 2-hydroxypropane-1,2,3-tricarboxylic acid. Thus five samples were tested relative to a blank and a standard, (1-hydroxyethan-1,1-diyl)bis(phosphonic acid), after 5 days at 26 μM concentrations. […] Concentrations were 26 μM.
Additional mild steel corrosion tests were performed at 130 μM concentration of compounds of Formula (I) and comparative compounds for 5 days. The next test compared the corrosion inhibition of Compound 8 with 2,3-dihydroxybutanedioic acid and Compound B, and Compound 4 with (1-hydroxyethan-1,1-diyl)bis(phosphonic acid) and Compound B. Also included was Compound 1 for reference. Concentrations in this set were 130 μM.

[2] = calcium carbonate scale inhibition (conductometric titration, supersaturation ratio Sr)
Protocol: To a 100 mL beaker were added 60 mL of HPLC-grade water and 3 mL of 0.1 M calcium chloride. An appropriate amount (0.5-4 mL) of an aqueous solution of the inhibitor compound of Formula (I) to be tested was then added. The solution was magnetically stirred at a constant speed for all experiments. The sample was then titrated with 0.1 M sodium carbonate. After addition of each 0.2 mL aliquot of sodium carbonate titrant, the solution was mixed for 1 min and then the conductivity of the solution measured.
As titrant is added the conductivity increases in a linear fashion. When the supersaturation point is reached, the conductivity decreases and precipitation begins. This is considered the endpoint of the titration. The resulting titration endpoint volumes are used to calculate a relative supersaturation ratio (Sr). This is the ratio of the supersaturation of calcium carbonate in the presence of the compound of Formula (I) being tested to the value of the supersaturation of water without inhibitor (distilled water plus 3 mL of 0.1 M calcium chloride). Thus, compounds with Sr>1 are displaying scale inhibition.
The scale inhibition performance of various compounds of Formula (I) and comparative compounds were compared at the same molar concentration. These compounds were tested at 60 μM concentration except where noted otherwise. Compound numbers are from Table 1.

[3] = copper corrosion inhibition, ASTM G31-72 coupon weight loss
Protocol: as §1, §2
The first test of copper corrosion inhibition compared Compound A with Compound 13 (from Table 1), 2-hydroxypropane-1,2,3-tricarboxylic acid, and a commercial inhibitor, Na-TAI.

[4] = 130 μM, Table 5 (blank 12.5 mpy)
[5] = 5 days, 130 μM, Table 4 (blank 24 mpy)

O=C(O)C(=O)O [Ethanedioic acid]
Inhibition relative to blank [1, 4]: −16%

CC(O)(P(=O)(O)O)P(=O)(O)O [(1-hydroxyethan-1,1-diyl)bis(phosphonic acid)]
Sr (supersaturation ratio) ([2]; 45 μM): 2.5
Sr (supersaturation ratio) ([2]; 60 μM): 4.4
Inhibition relative to blank ([1]; 5 days, 26 μM, Table 3): 36%
Inhibition relative to blank [1, 5]: 62%

CC(O)(P(=O)(O)O)P(=O)(O)O.CCCCCCCCCCOCCCN [Compound 4, Salt of Oxyamine (II) and (1-Hydroxyethan-1,1-diyl)bis(phosphonic acid) (1:1 Molar Stoichiometry)]
Sr (supersaturation ratio) ([2]; 60 μM): 4.3
Inhibition relative to blank [1, 5]: 68%

Salt of Oxyamine (II) and Ethanedioic acid salt (1:1 molar stoichiometry [Compound 2]
Inhibition relative to blank [1, 4]: −21%

O=C(O)CCC(CC(=O)O)(C(=O)O)P(=O)(O)O (stereo not drawn) [2-phosphonobutane-1,2,4-tricarboxylic acid]
Sr (supersaturation ratio) ([2]; 5.9 μM): 3.0

O=C(O)CC(O)(CC(=O)O)C(=O)O [2-hydroxypropane-1,2,3-tricarboxylic acid]
Sr (supersaturation ratio) ([2]; 63 μM): 1.2
Inhibition relative to blank ([3]; 42 μM, Table 7): 9%
Inhibition relative to blank ([3]; 7 days, 17 μM, Table 6): 0%
Inhibition relative to blank ([1]; 5 days, 26 μM, Table 3, 26 µM): 9.8% and 10%

O=C(O)CCC(=O)O [Butanedioic acid]
Sr (supersaturation ratio) ([2]; 60 μM): 1.0

Salt of Oxyamine (II) and Butanedioic acid salt (1:1 molar stoichiometry) [Compound 10]
Sr (supersaturation ratio) ([2]; 60 μM): 1.0

O=C(O)C(O)C(O)C(O)C(O)C(=O)O (stereo not drawn) [2,3,4,5-tetrahydroxyhexanedioic acid]
Sr (supersaturation ratio) ([2]; 60 μM): 1.4

Salt of Oxyamine (II) and Trihydroxidooxidophosphorus salt (1:1 molar stoichiometry) [Compound 3]
Inhibition relative to blank [1, 4]: 55%

Salt of Oxyamine (II) and 2,3-Dihydroxybutanedioic acid salt (1:1 molar stoichiometry) [Compound 8]
Sr (supersaturation ratio) ([2]; 60 μM): 1.3
Sr (supersaturation ratio) ([2]; 120 μM): 1.5
Inhibition relative to blank [1, 5]: 44%

[Na+].c1ccc2[n-]nnc2c1 [Na-TAI, sodium salt of 1,2,3-triaza-1H-indene]
Inhibition relative to blank ([3]; 7 days, 17 μM, Table 6): 71%

O=P(O)(O)O [Trihydroxidooxidophosphorus]
Inhibition relative to blank [1, 4]: 40%

O=C(O)C(O)C(O)C(=O)O (stereo not drawn) [2,3-Dihydroxybutanedioic acid]
Sr (supersaturation ratio) ([2]; 60 μM): 1.0
Inhibition relative to blank [1, 5]: 20%
